Data taken from patent US9079899B2, “Anti-staphylococcal celecoxib derivatives” (THE OHIO STATE UNIVERSITY, priority 2010, dated 2015).
In brackets after ≈: the same amount, converted by molar mass. Like-named read-outs stand apart in the source and are kept apart here.

What was measured:
[1] = test system: MRSA (SCCmec VT); experiment: MIC, broth microdilution; type: cell-based, methicillin-resistant Staphylococcus aureus
[2] = test system: S. epidermidis (ATCC 35984); experiment: MIC, broth microdilution; type: cell-based; details: for MIC S. epidermidis (ATCC 35984): CAMHB, 24 h, 37° C.; for MIC: S. epidermidis (ATCC 35984)
[3] = test system: S. aureus (ATCC 29213); experiment: MIC, broth microdilution; type: cell-based
[4] = test system: HT-29 human colon adenocarcinoma cells; experiment: Antiproliferative assay (MTT); type: cell-based; details: 24-h exposure, 10% FBS-supplemented RPMI 1640, MTT; for IC50: Homo sapiens, HT-29
Experimental: As celecoxib has been reported to be cytotoxic to cancer cells, the growth inhibitory activities of celecoxib and selected derivatives were assessed in. HT-29 human colon adenocarcinoma cells after 24-h exposure in 10% FBS-supplemented RPMI 1640 medium.
Antiproliferative assay. The cytotoxicity of individual test agents in HT-29 human colon adenocarcinoma cells was evaluated by using the 3-(4,5-dimethylthiazol-2-yl)-2,5-diphenyltetrazolium (MTT) assay. Briefly, HT-29 cells were seeded into 96-well plates at 1×10^4 cells/well (with a minimum of 6 wells per test condition) in RPMI 1640 medium supplemented with 10% FBS and 10 μg/ml of gentamicin. After overnight incubation at 37° C. under 5% CO2, the medium from each well was removed and replenished with fresh aliquots of the same medium containing various concentrations of test agents dissolved in DMSO (final concentration, 0.1%). Control cells were treated with DMSO alone at a concentration equal to that in drug-treated cells. After 24 h of drug exposure, the medium was removed and replaced by 100 μl of 0.5 mg/ml MTT in 10% FBS-containing medium, and the cells were incubated in the CO2 incubator at 37° C. for 2 h. Subsequently, medium was removed from each well, and the reduced MTT dye was dissolved with 100 μl of DMSO per well. Absorbance at 570 nm was measured with a plate reader. The 50% inhibitory concentration (IC50) of each drug was determined from dose-response curves by using CalcuSyn software (Biosoft, Cambridge, United Kingdom).

[5] = test system: MRSA (ATCC 49476); experiment: MIC, broth microdilution; type: cell-based, methicillin-resistant Staphylococcus aureus; details: Staphylococcus aureus
[6] = test system: MRSA (ATCC 33592); experiment: MIC, broth microdilution; type: cell-based, methicillin-resistant Staphylococcus aureus
[7] = test system: S. aureus (ATCC 12598); experiment: MIC, broth microdilution; type: cell-based; details: Staphylococcus aureus, ATCC12598
[8] = Table XIII, S. aureus (SSCmecVT)
[9] = Staphylococcus aureus, ATCC29213, 24 h, CAMHB, 24 h, 37° C., read-out: MIC S. aureus (ATCC 29213)

| SMILES | MIC S. epidermidis (ATCC 35984) [2] | MIC S. aureus (ATCC 29213) ([3]; CAMHB, 24 h, 37° C.) | IC50 HT-29 cells [4] | further results |
| --- | --- | --- | --- | --- |
| CC1(C)S[C@@H]2[C@H](NC(=O)[C@H](N)c3ccccc3)C(=O)N2[C@H]1C(=O)O [Ampicillin] | – | – | – | MIC [1, 8]: > 64 µg/mL |
| O=C(N[C@H](CO)[C@H](O)c1ccc([N+](=O)[O-])cc1)C(Cl)Cl [Chloramphenicol, chloramphenicol, reference compound] | – | – | – | MIC [1, 8]: > 64 µg/mL |
| CCCCc1ccc(-c2cc(C(F)(F)F)nn2-c2ccc(C(N)=O)cc2)cc1 [Compound 10] | did not exhibit appreciable activity at 64 μg/ml or improved activity relative to celecoxib | did not exhibit appreciable activity at 64 μg/ml or improved activity relative to celecoxib | – | – |
| NS(=O)(=O)c1ccc(-n2nc(C(F)(F)F)cc2-c2ccc(-c3ccc(Cl)cc3)cc2)cc1 [Compound 11] | 8 µg/mL (≈ 16.7 µM) | 4 µg/mL (≈ 8.37 µM) | 12.5 µg/mL (≈ 26.2 µM) | – |
| FC(F)(F)c1cc(-c2ccc3c(ccc4ccccc43)c2)n(-c2ccccc2)n1 [Compound 21] | did not exhibit appreciable activity at 64 μg/ml or improved activity relative to celecoxib | did not exhibit appreciable activity at 64 μg/ml or improved activity relative to celecoxib | – | – |
| NCC(=O)Nc1ccc(-n2nc(C(F)(F)F)cc2-c2ccc(-c3ccc(C(F)(F)F)cc3)cc2)cc1 [Compound 22] | did not exhibit appreciable activity at 64 μg/ml or improved activity relative to celecoxib | did not exhibit appreciable activity at 64 μg/ml or improved activity relative to celecoxib | – | – |
| NCC(=O)Nc1ccc(-n2nc(C(F)(F)F)cc2-c2ccc3c(ccc4ccccc43)c2)cc1 [Compound 23] | 4 µg/mL (≈ 8.69 µM) | 4 µg/mL (≈ 8.69 µM) | 3.6 µg/mL (≈ 7.82 µM) | – |
| NCC(=O)Nc1ccc(-n2nc(C(F)(F)F)cc2-c2ccc3c(c2)Nc2ccccc2S3)cc1 [Compound 24] | 4 µg/mL (≈ 8.31 µM) | 4 µg/mL (≈ 8.31 µM) | 6.2 µg/mL (≈ 12.9 µM) | – |
| NCC(=O)Nc1ccc(-n2nc(C(F)(F)F)cc2-c2ccc3oc4ccccc4c3c2)cc1 [Compound 25] | 4 µg/mL (≈ 8.88 µM) | 4 µg/mL (≈ 8.88 µM) | 6.5 µg/mL (≈ 14.4 µM) | – |
| NCCC(=O)Nc1ccc(-n2nc(C(F)(F)F)cc2-c2ccc(-c3ccc(C(F)(F)F)cc3)cc2)cc1 [Compound 26] | 4 µg/mL (≈ 7.72 µM) | 4 µg/mL (≈ 7.72 µM) | 4.2 µg/mL (≈ 8.1 µM) | – |
| NCCC(=O)Nc1ccc(-n2nc(C(F)(F)F)cc2-c2ccc3c(ccc4ccccc43)c2)cc1 [Compound 27] | 4 µg/mL (≈ 8.43 µM) | 4 µg/mL (≈ 8.43 µM) | 6 µg/mL (≈ 12.6 µM) | – |
| NCCC(=O)Nc1ccc(-n2nc(C(F)(F)F)cc2-c2ccc3c(c2)Nc2ccccc2S3)cc1 [Compound 28] | 4 µg/mL (≈ 8.07 µM) | 4 µg/mL (≈ 8.07 µM) | 7.5 µg/mL (≈ 15.1 µM) | – |
| NCCC(=O)Nc1ccc(-n2nc(C(F)(F)F)cc2-c2ccc3oc4ccccc4c3c2)cc1 [Compound 29] | 4 µg/mL (≈ 8.61 µM) | 4 µg/mL (≈ 8.61 µM) | 7.2 µg/mL (≈ 15.5 µM) | – |
| NCCCC[C@@H](N)C(=O)Nc1ccc(-n2nc(C(F)(F)F)cc2-c2ccc3c(ccc4ccccc43)c2)cc1 [Compound 30] | 4 µg/mL (≈ 7.52 µM) | 4 µg/mL (≈ 7.52 µM) | 3.2 µg/mL (≈ 6.02 µM) | – |
| NCCCC[C@@H](N)C(=O)Nc1ccc(-n2nc(C(F)(F)F)cc2-c2ccc3c(c2)Nc2ccccc2S3)cc1 [Compound 31] | 4 µg/mL (≈ 7.24 µM) | 4 µg/mL (≈ 7.24 µM) | 17.5 µg/mL (≈ 31.7 µM) | – |
| NCCCC[C@@H](N)C(=O)Nc1ccc(-n2nc(C(F)(F)F)cc2-c2ccc3oc4ccccc4c3c2)cc1 [Compound 32] | did not exhibit appreciable activity at 64 μg/ml or improved activity relative to celecoxib | did not exhibit appreciable activity at 64 μg/ml or improved activity relative to celecoxib | – | – |
| NCCCC[C@H](N)C(=O)Nc1ccc(-n2nc(C(F)(F)F)cc2-c2ccc(-c3ccc(C(F)(F)F)cc3)cc2)cc1 [Compound 33] | 4 µg/mL (≈ 6.95 µM) | 4 µg/mL (≈ 6.95 µM) | 3.3 µg/mL (≈ 5.73 µM) | – |
| NCCCC[C@H](N)C(=O)Nc1ccc(-n2nc(C(F)(F)F)cc2-c2ccc3c(ccc4ccccc43)c2)cc1 [Compound 34] | 4 µg/mL (≈ 7.52 µM) | 2 µg/mL (≈ 3.76 µM) | 19.5 µg/mL (≈ 36.7 µM) | – |
| NCCCC[C@H](N)C(=O)Nc1ccc(-n2nc(C(F)(F)F)cc2-c2ccc3c(c2)Nc2ccccc2S3)cc1 [Compound 35] | 4 µg/mL (≈ 7.24 µM) | 4 µg/mL (≈ 7.24 µM) | 5.2 µg/mL (≈ 9.41 µM) | – |
| NS(=O)(=O)Nc1ccc(-n2nc(C(F)(F)F)cc2-c2ccc(-c3ccccc3)cc2)cc1 [Compound 42, N-[4-(5-Biphenyl-4-yl-3-trifluoromethyl-pyrazol-1-yl)-phenyl]-aminosulfonamide] | – | – | – | MIC [5]: 1 µg/mL (≈ 2.18 µM); IC50 [4]: 16 µg/mL (≈ 34.9 µM); MIC ([6]; Staphylococcus aureus, read-out: MIC MRSA (ATCC 33592)): 1 µg/mL (≈ 2.18 µM); MIC ([1]; Staphylococcus aureus, MRSA, read-out: MIC MRSA (SCCmec VT)): 1 µg/mL (≈ 2.18 µM); MIC [3, 9]: 1 µg/mL (≈ 2.18 µM); MIC [7]: 1 µg/mL (≈ 2.18 µM) |
| NS(=O)(=O)Nc1ccc(-n2nc(C(F)(F)F)cc2-c2ccc3ccccc3c2)cc1 [Compound 45, N-[4-(5-Naphthalen-2-yl-3-trifluoromethyl-pyrazol-1-yl)-phenyl]-aminosulfonamide] | – | – | – | IC50 [4]: 19 µg/mL (≈ 43.9 µM); MIC [3, 9]: 1 µg/mL (≈ 2.31 µM) |
| NC[C@H]1O[C@H](O[C@H]2[C@H](O)[C@@H](O[C@H]3O[C@H](CO)[C@@H](O)[C@H](N)[C@H]3O)[C@H](N)C[C@@H]2N)[C@H](O)[C@@H](O)[C@@H]1O [Kanamycia] | – | – | – | MIC [1, 8]: > 64 µg/mL |
| CS(=O)(=O)c1ccc(C2=C(c3ccccc3)C(=O)OC2)cc1 [Rofecoxib, rofecoxib, reference compound] | – | – | – | MIC ([2]; Staphylococcus epidermidis, ATCC35984, Table IX, read-out: MIC): > 64 µg/mL; MIC ([2]; Table IX): NE (no effect of the test agent at 64 μg/ml); MIC ([6]; Staphylococcus aureus, Table IX, MRSA (ATCC 33592), read-out: MIC): > 64 µg/mL; MIC ([6]; Table IX, MRSA (ATCC 33592)): NE (no effect of the test agent at 64 μg/ml); MIC ([1]; Staphylococcus aureus, MRSA, Table IX, MRSA (SCCmec VT), read-out: MIC): > 64 µg/mL; MIC ([1]; Table IX, MRSA (SCCmec VT)): NE (no effect of the test agent at 64 μg/ml); MIC ([3]; Staphylococcus aureus, ATCC29213, Table IX, S. aureus (ATCC 29213), read-out: MIC): > 64 µg/mL; MIC ([3]; Table IX, S. aureus (ATCC 29213)): NE (no effect of the test agent at 64 μg/ml) |
| [H]/N=C(/N)N[C@H]1[C@H](O)[C@@H](O)[C@H](O[C@@H]2O[C@@H](C)[C@](O)(C=O)[C@H]2O[C@@H]2O[C@@H](CO)[C@H](O)[C@@H](O)[C@@H]2NC)[C@@H](N/C(N)=N\[H])[C@@H]1O [Streptomycin, streptomycin, reference compound] | – | – | – | MIC [1, 8]: > 64 µg/mL |
| CN(C)[C@@H]1C(O)=C(C(N)=O)C(=O)[C@@]2(O)C(O)=C3C(=O)c4c(O)cccc4[C@@](C)(O)[C@H]3C[C@@H]12 [Tetracycline, tetracycline, reference compound] | – | – | – | MIC [1, 8]: 16 µg/mL (≈ 36 µM) |
